Test results reported in patent publication US20260256792A1, “TREATMENT OF CHRONIC SPONTANEOUS URTICARIA BY ADMINISTERING (R)-2-[3-[4-AMINO-3-(2-FLUORO-4-PHENOXY-PHENYL)PYRAZOLO[3,4-D]PYRIMIDIN-1-YL]PIPERIDINE-1-CARBONYL]-4-METHYL-4-[4-(OXETAN-3-YL)PIPERAZIN-1-YL]PENT-2-ENENITRILE” (priority 2023, published 2026).

System: moderate-to-severe chronic spontaneous urticaria (CSU)
Assay: Phase 2 CSU study: hives severity score over 7 days (HSS7)
Format: in vivo, human
Set-up: key to HSS7 Change from baseline, Median / HSS7, Median / HSS7, Max / HSS7 Change from baseline, Q1 / HSS7 Change from baseline, Q3 / HSS7 Change from baseline, Max: 7-day sum of daily hive scores, each 0 = none to 3 = >50 hives
Text: The study comprises a 12 week, randomized, double-blind, placebo-controlled, multi-center, dose-ranging efficacy and safety phase, followed by a 40 week open label extension (OLE) phase (see FIG. 1).
The study consists of three phases and an optional OLE phase.
The UAS is a validated PRO measure. The daily UAS is the sum of the daily Hive Severity Score (HSS, ranging from 0=None to 3=more than 50 hives) and the daily Itch Severity Score (ISS, ranging from 0=None to 3=intense), the 2 key urticaria signs and symptoms which are wheals and itch. The daily UAS scores range from 0 to 6 point/day. Daily UAS scores are summed over 7-day period to create the UAS7, ranging from 0 to 42, and are composed of the HSS7 and ISS7 components. […] Patients were to complete the UAS using the e-diary. The e-diary was to be used once daily on the same time of each day recording of participant's answers to the urticaria activity score over 7 days (UAS7) questionnaire. For participants who entered the OLE phase, their answers to the UAS7 questionnaire were also to be collected from Week 20 to Week24 and from Week 48 to Week 52.
The following secondary endpoints were to be analyzed using the same approach as for the primary endpoint: • Change from baseline in UAS7 at Week 4 • Change from baseline in UAS7 at Week 12 (for US and US reference countries) • Change from baseline in ISS7 at Week 12 (except US and US reference countries) • Change from baseline in HSS7 at Week 12

[1] = Week 4, 400 mg BID, Omalizumab-Naïve Population
[2] = Week 4, 400 mg BID, Patients with Prior Omalizumab Use
[3] = Week 4, 400 mg QPM, Omalizumab-Naïve Population
[4] = Week 4, 400 mg QPM, Patients with Prior Omalizumab Use
[5] = Week 4, 400 mg TID, Omalizumab-Naïve Population
[6] = Week 4, 400 mg TID, Patients with Prior Omalizumab Use
[7] = Week 5, 400 mg BID, Omalizumab-Naïve Population
[8] = Week 5, 400 mg BID, Patients with Prior Omalizumab Use
[9] = Week 5, 400 mg QPM, Omalizumab-Naïve Population
[10] = Week 5, 400 mg QPM, Patients with Prior Omalizumab Use
[11] = Week 5, 400 mg TID, Omalizumab-Naïve Population
[12] = Week 5, 400 mg TID, Patients with Prior Omalizumab Use
[13] = Week 6, 400 mg BID, Omalizumab-Naïve Population
[14] = Week 6, 400 mg BID, Patients with Prior Omalizumab Use
[15] = Week 6, 400 mg QPM, Omalizumab-Naïve Population
[16] = Week 6, 400 mg QPM, Patients with Prior Omalizumab Use
[17] = Week 6, 400 mg TID, Omalizumab-Naïve Population
[18] = Week 6, 400 mg TID, Patients with Prior Omalizumab Use

## CC(C)(C=C(C#N)C(=O)N1CCC[C@@H](n2nc(-c3ccc(Oc4ccccc4)cc3F)c3c(N)ncnc32)C1)N1CCN(C2COC2)CC1 [rilzabrutinib, (R)-2-[3-[4-amino-3-(2-fluoro-4-phenoxy-phenyl)pyrazolo[3,4-d]pyrimidin-1-yl]piperidine-1-carbonyl]-4-methyl-4-[4-(oxetan-3-yl)piperazin-1-yl]pent-2-enenitrile]
[1]
  HSS7, Mean (SD): 7.60 (6.00)
  HSS7, Median: 7.00
  HSS7 Change from baseline, Mean (SD): −6.54 (5.34)
  HSS7 Change from baseline, Median: −6.00
  HSS7 Percent change from baseline, Mean (SD): −47.44 (37.17) %
  HSS7 Percent change from baseline, Median: −42.86%
[2]
  HSS7, Mean (SD): 6.80 (8.04)
  HSS7, Median: 2.00
  HSS7 Change from baseline, Mean (SD): −10.00 (8.34)
  HSS7 Change from baseline, Median: −12.00
  HSS7 Percent change from baseline, Mean (SD): −60.22 (47.52) %
  HSS7 Percent change from baseline, Median: −88.24%
[3]
  HSS7 Change from baseline, Mean (SD): −4.20 (4.74)
  HSS7 Change from baseline, Median: −3.00
  HSS7 Percent change from baseline, Mean (SD): −26.30 (29.41) %
  HSS7 Percent change from baseline, Median: −16.67%
[4]
  HSS7, Mean (SD): 10.00 (NC)
  HSS7 Change from baseline, Mean (SD): −10.00 (NC)
  HSS7 Change from baseline, Median: −10.00
  HSS7 Percent change from baseline, Mean (SD): −50.00 (NC) %
  HSS7 Percent change from baseline, Median: −50.00%
[5]
  HSS7, Mean (SD): 6.85 (4.96)
  HSS7, Median: 6.50
  HSS7 Change from baseline, Mean (SD): −7.21 (5.24)
  HSS7 Change from baseline, Median: −6.58
  HSS7 Percent change from baseline, Mean (SD): −50.43 (33.03) %
  HSS7 Percent change from baseline, Median: −50.69%
[6]
  HSS7, Mean (SD): 3.92 (4.26)
  HSS7, Median: 3.17
  HSS7 Change from baseline, Mean (SD): −12.11 (6.81)
  HSS7 Change from baseline, Median: −12.42
  HSS7 Percent change from baseline, Mean (SD): −73.06 (22.97) %
  HSS7 Percent change from baseline, Median: −76.19%
[7]
  HSS7, Mean (SD): 8.34 (6.75)
  HSS7, Median: 7.00
  HSS7 Change from baseline, Mean (SD): −6.01 (5.82)
  HSS7 Change from baseline, Median: −7.00
  HSS7 Percent change from baseline, Mean (SD): −43.27 (41.28) %
  HSS7 Percent change from baseline, Median: −42.86%
[8]
  HSS7, Mean (SD): 4.25 (8.50)
  HSS7, Median: 0.00
  HSS7 Change from baseline, Median: −14.50
  HSS7 Percent change from baseline, Mean (SD): −75.00 (50.00) %
  HSS7 Percent change from baseline, Median: −100.00%
[9]
  HSS7, Mean (SD): 9.63 (5.13)
  HSS7, Median: 8.20
  HSS7 Change from baseline, Mean (SD): −5.12 (5.22)
  HSS7 Change from baseline, Median: −3.50
  HSS7 Percent change from baseline, Mean (SD): −32.44 (31.06) %
  HSS7 Percent change from baseline, Median: −26.11%
[10]
  HSS7, Mean (SD): 8.00 (NC)
  HSS7, Median: 8.00
  HSS7 Change from baseline, Mean (SD): −12.00 (NC)
  HSS7 Change from baseline, Median: −12.00
  HSS7 Percent change from baseline, Mean (SD): −60.00 (NC) %
  HSS7 Percent change from baseline, Median: −60.00%
[11]
  HSS7, Mean (SD): 6.49 (5.14)
  HSS7, Median: 6.00
  HSS7 Change from baseline, Mean (SD): −7.57 (5.71)
  HSS7 Change from baseline, Median: −7.00
  HSS7 Percent change from baseline, Mean (SD): −52.28 (34.93) %
  HSS7 Percent change from baseline, Median: −50.00%
[12]
  HSS7, Mean (SD): 3.42 (4.45)
  HSS7, Median: 2.50
  HSS7 Change from baseline, Mean (SD): −12.61 (7.49)
  HSS7 Change from baseline, Median: −12.00
  HSS7 Percent change from baseline, Mean (SD): −75.12 (24.22) %
  HSS7 Percent change from baseline, Median: −75.37%
[13]
  HSS7, Mean (SD): 8.17 (6.62)
  HSS7, Median: 7.00
  HSS7 Change from baseline, Mean (SD): −6.17 (6.01)
  HSS7 Change from baseline, Median: −6.42
  HSS7 Percent change from baseline, Mean (SD): −43.56 (44.25) %
  HSS7 Percent change from baseline, Median: −47.73%
[14]
  HSS7, Mean (SD): 5.97 (7.25)
  HSS7, Median: 3.50
  HSS7 Change from baseline, Mean (SD): −8.83 (9.41)
  HSS7 Change from baseline, Median: −12.00
  HSS7 Percent change from baseline, Mean (SD): −50.00 (62.36) %
  HSS7 Percent change from baseline, Median: −83.33%
[15]
  HSS7, Mean (SD): 9.94 (5.76)
  HSS7, Median: 8.28
  HSS7 Change from baseline, Mean (SD): −5.20 (5.64)
  HSS7 Change from baseline, Median: −4.50
  HSS7 Percent change from baseline, Mean (SD): −33.60 (35.00) %
  HSS7 Percent change from baseline, Median: −37.09%
[16]
  HSS7, Mean (SD): 8.00 (NC)
  HSS7, Median: 8.00
  HSS7 Change from baseline, Mean (SD): −12.00 (NC)
  HSS7 Change from baseline, Median: −12.00
  HSS7 Percent change from baseline, Mean (SD): −60.00 (NC) %
  HSS7 Percent change from baseline, Median: −60.00%
[17]
  HSS7, Mean (SD): 6.78 (5.55)
  HSS7, Median: 6.00
  HSS7 Change from baseline, Mean (SD): −7.22 (6.24)
  HSS7 Change from baseline, Median: −7.00
  HSS7 Percent change from baseline, Mean (SD): −49.49 (37.97) %
  HSS7 Percent change from baseline, Median: −46.15%
[18]
  HSS7, Mean (SD): 2.83 (4.62)
  HSS7, Median: 1.00
  HSS7 Change from baseline, Mean (SD): −13.19 (6.97)
  HSS7 Change from baseline, Median: −13.00
  HSS7 Percent change from baseline, Mean (SD): −81.39 (23.52) %
  HSS7 Percent change from baseline, Median: −91.50%
